US20250304623A1, “PEPTIDES FOR INTRACELLULAR DELIVERY” (UNIVERSIDADE DE SANTIAGO DE COMPOSTELA, priority 2022, published 2025)
*: point of attachment. NHNH2 = NN*

Assays:
[1] = tested on: HCT116 cells expressing EGFP; test: EGFP-targeting siRNA delivery (GFP silencing vs siMOCK), HCT116; assay type: cell-based
Experimental: (§1) To generate an EGFP expressing HeLa cell line, HeLa cells were transfected with EGFP pDNA (pEGFP-C1, Clontech) and stable transfectants were selected with 400 μg/mL of G-418 (Millipore). Green clones were selected by epifluorescence microscopy and tested for EGFP expression stability through several passages. […] All other EGFP-expressing cell lines were obtained in a similar way from parent non-EGFP-expressing cell lines.
Cells expressing EGFP were seeded in a 96 well plate the day before the experiment at a concentration of 50,000 cell/mL (100 μL/w) in DMEM+10% FBS+1% Gln-Abt. For robotic library screening, the delivery of an EGFP-targeting siRNA (EGFP: enhanced green fluorescent protein, Ambion® Silencer® GFP Positive Control siRNA (siGFP) (AM4626)) in six different cell lines expressing EGFP was performed. Amphiphilic molecules stock solutions in DMSO were diluted with DMEM and freshly mixed with siRNA stock solutions in DMEM prior to transfection experiments, to afford several complexes at different amphiphile concentration (2-10 μM) while maintaining a constant final siRNA concentration of 30 nM. The mixture was shaken for 30 min at room temperature (rt) before the addition to the cells. The cell medium was aspirated, and cells were washed twice with PBS. Finally, 50 μL of the solution of siRNA/amphiphile complexes were added to the cells and incubated for 4 h. After transfection, the medium was replaced by 100 μL of fresh DMEM supplemented with 10% FBS. The fluorescence knockdown was quantified after 72 h in a plate reader, by comparison with cells transfected with a non-targeting siRNA control (siMOCK, Silencer™ Negative Control No. 1 siRNA (siMOCK) (AM4611)). EGFP knockdown was compared with Lipofectamine® RNAiMAX silencing efficiency (30-60% depending on cell line, defined with a numeric value in the below tables). All experiments were done in triplicate.
(§2) Tables 1-7: RLuc (pDNA) or EGFP (mRNA) expression levels were normalized to Lipofectamine reagents (value=1) and expressed as fold-times signal increase. In the case of siRNA, the siRNA treated cells fluorescence was compared with siMOCK control fluorescence, while Cas9-RNP mediated knockout was measured against the fluorescence of untreated cells. In both siRNA and Cas9-RNP, values are expressed as % fluorescence reduction. Amphiphile concentration was 5 μM in all cases. All experiments were performed in triplicate.
Tables 20-25 show the mean (triplicates) percentage of GFP-silencing, accounted by fluorescence intensity decrease relative to a non-targeting siRNA (siMOCK) control, measured after the transfection of siRNA by different amphiphiles at different concentrations in a variety of cell lines. Background values, accounted by untreated control cells, were subtracted for processing.

[2] = tested on: Hela cells expressing EGFP; test: Cas9-RNP delivery against EGFP (gene editing, plate reader), HeLa; assay type: cell-based; conditions: for % GFP silencing due to gene editing (Cas9-RNP): HeLa
Experimental: as §1
Cells expressing EGFP were seeded in a 96 well plate the day before the experiment at a concentration of 50,000 cell/mL (100 μL/w) in DMEM+10% FBS+1% Gln-Abt. For robotic library screening, the delivery of Cas9-RNP against EGFP (RNP designed to knock-out the gene encoding for the enhanced green fluorescent protein (EGFP)) was performed. For RNP assembly, 9.2 μL of crRNA and 9.2 μL of tracrRNA were mixed in 211.6 μL of Nuclease-Free Duplex Buffer (IDT), incubated for 5 min at 95° C. and slowly cooled at rt (see I. Lostalé-Seijo, et al. Peptide/Cas9 nanostructures for ribonucleoprotein cell membrane transport and gene edition, Chem. Sci., 2017). Cas9 protein was dissolved in DMEM at a final concentration of 4 μM and equal volumes of the RNA complex and Cas9 were mixed and incubated for 5 min at rt. 75 μL of the corresponding amphiphile concentrations were added to 5 μL of RNP at 2 μM. The mixture was shaken for 30 min at room temperature before the addition to the cells. The cell medium was aspirated, and cells were washed twice with PBS. Cells were covered with 30 μL of DMEM and 20 μL of the RNP/amphiphile complexes were added to the cells (final peptide concentrations=2.5, 5 and 10 μM; final Cas9-RNP concentration=50 nM) and incubated for 4 h. After the incubation, the medium was replaced by 100 μL of fresh DMEM supplemented with 10% FBS. The total EGFP fluorescence was quantified after 72 h in a plate reader (FIG. 2, Table 1 (right) and Table 6). All experiments were done in triplicate.
as §2
Tables 26-31 show the mean (triplicates) percentage of gene editing, accounted by GFP fluorescence intensity decrease (% of reduction), measured after the transfection of Cas9-RNP by different amphiphiles at different concentrations in a variety of cell lines. Background values, accounted by untreated control cells, were subtracted for processing.

[3] = Petroselinyl, 10 μM, Hela cells
[4] = Petroselinyl, 15 μM, Hela cells

Substance	percentage of GFP-silencing relative to siMOCK ([1]; Dodecanal, 10 μM) [%]	percentage of GFP-silencing relative to siMOCK ([1]; Dodecanal, 15 μM) [%]	percentage of GFP-silencing relative to siMOCK ([1]; Myristoleyl, 10 μM) [%]	percentage of GFP-silencing relative to siMOCK ([1]; Palmitoleyl, 10 μM) [%]	percentage of GFP-silencing relative to siMOCK ([1]; Petroselinyl, 5 μM) [%]	percentage of GFP-silencing relative to siMOCK ([1]; Petroselinyl, 10 μM) [%]	percentage of gene editing, GFP fluorescence intensity decrease (% of reduction) ([2]; Myristoleyl, 5 μM, HeLa cells) [%]	percentage of GFP-silencing relative to siMOCK ([1]; Dodecanal, 5 μM) [%]	percentage of GFP-silencing relative to siMOCK ([1]; Palmitoleyl, 5 μM) [%]	percentage of gene editing, GFP fluorescence intensity decrease (% of reduction) ([2]; Myristoleyl, 10 μM, HeLa cells) [%]	percentage of gene editing, GFP fluorescence intensity decrease (% of reduction) ([2]; Petroselinyl, 5 μM, HeLa cells) [%]	percentage of gene editing, GFP fluorescence intensity decrease (% of reduction) [2, 3] [%]	percentage of gene editing, GFP fluorescence intensity decrease (% of reduction) [2, 4] [%]	further results
Ac-RHLK*RHK*RRLK*RH-NH2 (Ac-RHLKRHKRRLKRH-NH2; not fully specified (residues 4, 7, 11); printed as Ac-RHLK*RHK*RRLK*RH-NH2; also: linker on K* not given here) [13(3His)]	62	56	45	56	13	60	18	–	–	–	–	–	–	percentage of GFP-silencing relative to siMOCK ([1]; Myristoleyl, 15 μM): 29%; percentage of GFP-silencing relative to siMOCK ([1]; Oleyl, 15 μM): 31%; percentage of GFP-silencing relative to siMOCK ([1]; Petroselinyl, 15 μM): 27%
Ac-RHLK*RLK*RRLK*RL-NH2 (Ac-RHLKRLKRRLKRL-NH2; not fully specified (residues 4, 7, 11); printed as Ac-RHLK*RLK*RRLK*RL-NH2; also: linker on K* not given here) [13(Arg-His)]	–	–	24	–	56	–	48	65	64	85	23	69	80	percentage of GFP-silencing relative to siMOCK ([1]; Myristoleyl, 5 μM): 62%; percentage of gene editing, GFP fluorescence intensity decrease (% of reduction) ([2]; Dodecanal, 5 μM, Hela cells): 37%; percentage of gene editing, GFP fluorescence intensity decrease (% of reduction) ([2]; Dodecanal, 10 μM, HeLa cells): 78%; % GFP silencing due to gene editing (Cas9-RNP) ([2]; 5 μM, Ole tail): 73%; % GFP silencing due to gene editing (Cas9-RNP) ([2]; 5 μM, Pal tail): 73%; percentage of gene editing, GFP fluorescence intensity decrease (% of reduction) ([2]; Oleyl, 5 μM, HeLa cells): 46%; percentage of gene editing, GFP fluorescence intensity decrease (% of reduction) ([2]; Oleyl, 10 μM, HeLa cells): 73%; percentage of gene editing, GFP fluorescence intensity decrease (% of reduction) ([2]; Palmitoleyl, 5 μM, HeLa cells): 48%; percentage of gene editing, GFP fluorescence intensity decrease (% of reduction) ([2]; Palmitoleyl, 10 μM, HeLa cells): 73%; percentage of gene editing, GFP fluorescence intensity decrease (% of reduction) ([2]; Palmitoleyl, 15 μM, Hela cells): 78%
Ac-RRHK*RLK*RRLK*RL-NH2 (Ac-RRHK(NHNH2)RLK(NHNH2)RRLK(NHNH2)RL-NH2; not fully specified; printed as Ac-RRHK*RLK*RRLK*RL-NH2; also: K*4,K*7,K*11: native or modified lysine (ε-amide to a linker)) [13(Leu-His)]	43	40	–	49	47	29	16	43	43	73	39	74	81	% GFP silencing due to gene editing (Cas9-RNP) ([2]; 5 μM, Myr tail): 73%
